Experimental data reported in the supplement of paper PMC10307832.

Tests used:
Experiment in all cases: relative viability (nuclei count vs DMSO), 5 days (fraction); higher = more cells survive
[1] = compound: CC[C@H](Nc1ncnc2[nH]cnc12)c1nc2cccc(F)c2c(=O)n1-c1ccccc1 [Idelalisib] + COc1cccc2cc(-c3nc([C@H]4CC[C@H](C(=O)O)CC4)n4ncnc(N)c34)[nH]c12 [OSI-027] (partner 0.5 µM)
Outline: (§1)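 Values are medians from duplicate plates. Each reflects relative viability, defined as the nuclei count of treated wells over that of vehicle wells. Lung cancer cell lines in 1536-well plates were pin-tool dosed one day after seeding with one drug alone or with a fixed anchor-drug dose plus five library-drug doses (not always all listed) in √10 steps, then fixed, stained and imaged at 4× after 5 days.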

[2] = compound: CC[C@H](Nc1ncnc2[nH]cnc12)c1nc2cccc(F)c2c(=O)n1-c1ccccc1 [Idelalisib] + O=C(c1cc(Cc2n[nH]c(=O)c3ccccc23)ccc1F)N1CCN(C(=O)C2CC2)CC1 [Olaparib] (partner 8 µM)
Outline: as §1

[3] = compound: Nc1nc2[nH]cc(CCc3ccc(C(=O)N[C@@H](CCC(=O)O)C(=O)O)cc3)c2c(=O)[nH]1 [Pemetrexed] + Cc1nc(NC(=O)N2CCC[C@H]2C(N)=O)sc1-c1ccnc(C(C)(C)C(F)(F)F)c1 [Alpelisib] (partner 2 µM)
Outline: as §1

[4] = compound: Nc1nc2[nH]cc(CCc3ccc(C(=O)N[C@@H](CCC(=O)O)C(=O)O)cc3)c2c(=O)[nH]1 [Pemetrexed] + O=C(c1cc(Cc2n[nH]c(=O)c3ccccc23)ccc1F)N1CCN(C(=O)C2CC2)CC1 [Olaparib] (partner 8 µM)
Outline: as §1

Cell Line	relative viability ([1]; first compound 0.04 µM)	relative viability ([1]; first compound 0.1265 µM)	relative viability ([1]; first compound 0.4 µM)	relative viability ([1]; first compound 1.265 µM)	relative viability ([1]; first compound 4 µM)	relative viability ([2]; first compound 0.04 µM)	relative viability ([2]; first compound 0.1265 µM)	relative viability ([2]; first compound 0.4 µM)	relative viability ([2]; first compound 1.265 µM)	relative viability ([2]; first compound 4 µM)	relative viability ([3]; first compound 0.002 µM)	relative viability ([3]; first compound 0.006325 µM)	relative viability ([3]; first compound 0.02 µM)	relative viability ([3]; first compound 0.06325 µM)	relative viability ([3]; first compound 0.2 µM)	relative viability ([4]; first compound 0.002 µM)	relative viability ([4]; first compound 0.006325 µM)	relative viability ([4]; first compound 0.02 µM)	relative viability ([4]; first compound 0.06325 µM)	relative viability ([4]; first compound 0.2 µM)
HCC-44	0.474	0.54	0.437	0.604	0.5	1.05	0.998	0.962	1.04	1.05	0.771	0.732	0.854	0.785	0.602	0.97	0.952	0.987	0.964	0.909
HCC-78	0.413	0.364	0.324	0.36	0.293	0.78	0.855	0.553	0.781	0.585	–	0.316	0.324	0.228	0.174	–	0.792	0.662	0.29	0.233
HCC-366	1.09	0.889	0.598	0.788	0.677	0.386	0.412	0.348	0.305	0.315	0.448	0.507	0.365	0.452	0.376	0.345	0.432	0.385	0.36	0.332
HCC-827	0.928	0.738	0.759	0.698	0.659	0.667	0.613	0.612	0.571	0.491	0.891	0.977	0.996	1.07	0.726	0.666	0.614	0.618	0.633	0.416
HOP-62	0.775	0.879	0.719	0.888	0.767	0.306	0.538	0.442	0.387	0.498	0.842	0.868	0.896	0.847	0.957	–	0.443	0.55	0.391	0.387
IA-LM	–	–	–	–	–	0.711	0.952	0.747	1.02	0.93	0.797	0.716	0.737	0.771	0.67	0.74	0.725	0.926	0.889	0.852
LC-2-ad	0.944	0.781	0.651	0.82	0.715	0.691	0.728	0.764	0.805	0.734	0.888	0.936	0.833	0.232	0.187	0.712	0.711	0.683	0.612	0.312
LCLC-97TM1	0.649	0.543	0.24	0.554	0.418	0.328	0.349	0.324	0.347	0.378	0.265	0.2	0.257	0.173	0.237	0.442	0.327	0.457	0.426	0.411
